Laboratory results published in patent US6864056B1 (priority 2000, dated 2005).

Test system: dAU6 NH3 oligonucleotide substrate
Assay type: biochemical

gelonin
level of activity (fluorescence normalized with negative control, FIG. 3): highest level of activity
